In PMC3445516 (PLoS ONE, 2012):
Read-outs that look alike come from different tables or passages of the source.

Assays:
[1] = tested on: PKD1 in LNCaP prostate cancer cells; parameters: method as in PMID 18829454, PMID 22267986, PMID 21617763, PMID 20444281, PMID 21998636; details: cited from earlier work
[2] = tested on: PKD1; parameters: method as in PMID 18829454, PMID 22267986, PMID 21617763, PMID 20444281, PMID 21998636; details: cited from earlier work; for IC50: previous HTS assays; for inhibition of PKD1 in vitro: previous work
[3] = biological target: T1, recombinant GST-tagged human protein kinase D1 (PKD1) (Homo sapiens, UniProt Q15139); assay: In vitro radiometric PKD1 kinase assay; type: biochemical; details: for inhibition at 1 µM: read-out: Inhibition of PKD1
T1 construct: purchased Enzo Life sciences (Farmingdale, NY)
T1 sequence (Q15139 1-912): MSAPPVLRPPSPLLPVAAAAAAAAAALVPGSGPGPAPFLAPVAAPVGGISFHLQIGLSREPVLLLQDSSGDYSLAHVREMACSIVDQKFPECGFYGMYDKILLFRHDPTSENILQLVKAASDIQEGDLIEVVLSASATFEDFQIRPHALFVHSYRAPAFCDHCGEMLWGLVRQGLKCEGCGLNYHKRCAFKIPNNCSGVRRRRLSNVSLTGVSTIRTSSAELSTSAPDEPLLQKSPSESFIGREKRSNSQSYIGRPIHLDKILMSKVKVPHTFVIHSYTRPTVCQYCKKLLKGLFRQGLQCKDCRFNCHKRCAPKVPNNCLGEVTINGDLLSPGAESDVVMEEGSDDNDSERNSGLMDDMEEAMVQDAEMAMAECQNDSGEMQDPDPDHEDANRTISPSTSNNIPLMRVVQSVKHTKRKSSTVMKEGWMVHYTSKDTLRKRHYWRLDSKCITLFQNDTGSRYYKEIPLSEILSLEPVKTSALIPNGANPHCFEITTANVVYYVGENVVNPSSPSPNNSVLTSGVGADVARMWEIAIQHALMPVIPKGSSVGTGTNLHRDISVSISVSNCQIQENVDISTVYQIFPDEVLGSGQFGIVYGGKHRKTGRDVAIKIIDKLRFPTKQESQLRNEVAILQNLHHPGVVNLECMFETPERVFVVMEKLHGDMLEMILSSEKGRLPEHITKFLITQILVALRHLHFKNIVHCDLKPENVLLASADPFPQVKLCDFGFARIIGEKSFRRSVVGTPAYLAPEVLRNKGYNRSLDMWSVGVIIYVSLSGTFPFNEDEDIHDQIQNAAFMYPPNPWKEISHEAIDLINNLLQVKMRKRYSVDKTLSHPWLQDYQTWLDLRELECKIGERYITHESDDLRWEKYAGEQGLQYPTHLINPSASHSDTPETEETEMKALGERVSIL
Protocol: All compounds were given distinct UPCMLD (University of Pittsburgh Center for Chemical Methodologies and Library Development) IDs and were then assigned numerical IDs for convenient data display. Evaluation of each compound was carried out in triplicate at a single concentration (1 µM). Our previously described PKD1 inhibitor, kb-NB142-70, and DMSO (solvent alone) were used as positive and negative controls, respectively. Percent residual kinase activity was calculated based on that of the negative control (DMSO).
Kinase active recombinant GST-tagged human protein kinase D1 (PKD1) was obtained from Enzo Life sciences (Farmingdale, NY). DMSO was purchased from Sigma. Recombinant PKCα, PKCδ and CAMKIIα were obtained from SignalChem (Richmond, BC, Canada). ATP was purchased from Fisher Scientific. HDAC5 substrate peptide was synthesized by Biobasic Canada Inc. (Markham, ON). Myelin basic protein 4–14 was purchased from AnaSpec Inc. (Fremont, CA). The targeted kinase inhibitor library was obtained from Hoffmann-La Roche, Inc.
1.2 µg of HDAC-5 was used as substrate in the reaction. Phosphorylation of HDAC5 was detected in a kinase reaction having 1 µCi [γ-^32P] […] The reaction was incubated at 30° for 10 minutes and 25 µL of the reaction was spotted on Whatman P81 filter paper. The filter paper was washed 3 times in 0.5% phosphoric acid, air dried and counted using Beckman LS6500 multipurpose scintillation counter. Percent PKD1 inhibition was graphed using GraphPad Prism software 5.0.

[4] = biological target: p38δ (Homo sapiens, UniProt O15264); assay: In vitro radiometric p38 kinase assay; type: biochemical
Chain of p38δ (O15264 whole entry): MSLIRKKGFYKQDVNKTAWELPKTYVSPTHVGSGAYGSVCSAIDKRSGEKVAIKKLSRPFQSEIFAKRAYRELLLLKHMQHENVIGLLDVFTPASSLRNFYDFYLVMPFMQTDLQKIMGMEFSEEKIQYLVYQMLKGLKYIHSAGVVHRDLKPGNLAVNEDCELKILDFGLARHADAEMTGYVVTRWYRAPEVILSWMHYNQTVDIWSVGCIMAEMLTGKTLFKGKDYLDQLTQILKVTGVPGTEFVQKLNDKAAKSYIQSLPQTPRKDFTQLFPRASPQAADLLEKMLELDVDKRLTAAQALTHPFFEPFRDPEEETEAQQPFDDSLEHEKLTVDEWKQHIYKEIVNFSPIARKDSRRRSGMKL
Protocol: To confirm that p38 was indeed a target of the 4-azaindole, the inhibition of p38 by the twenty-eight PKD1 inhibitors was evaluated using an in vitro radiometric p38 kinase assay. […] Taken together, our data has identified a novel PKD1 inhibitor scaffold that is active for p38α, but not for PKC, CAMK and p38δ.
Phosphorylation of 3.5 µg of p38 substrate was detected in a reaction having 1 µCi [γ-^32P] ATP (Perkin Elmer Life Sciences), 50 µM ATP, 50 ng active recombinant p38 in 50 µL kinase buffer containing 25 mM Tris-HCl, pH 7.5, 10 mM MgCl2, 5 mM β-glycerophosphate, 0.1 mM Na3VO4 and 2 mM DTT. The reaction was incubated at 30°C for 10 minutes and 25 µL of the reaction was spotted on Whatman P81 filter paper. The filter paper was washed 3 times in 0.5% phosphoric acid, air dried and counted using Beckman LS6500 multipurpose scintillation counter. Percent p38 inhibition was graphed using GraphPad Prism software 5.0.

[5] = biological target: PKCδ (Homo sapiens, UniProt Q05655); assay: In vitro radiometric PKC kinase assay; type: biochemical; parameters: purchased SignalChem (Richmond, BC, Canada); details: read-out: inhibition of PKCδ
Chain of PKCδ (Q05655 whole entry): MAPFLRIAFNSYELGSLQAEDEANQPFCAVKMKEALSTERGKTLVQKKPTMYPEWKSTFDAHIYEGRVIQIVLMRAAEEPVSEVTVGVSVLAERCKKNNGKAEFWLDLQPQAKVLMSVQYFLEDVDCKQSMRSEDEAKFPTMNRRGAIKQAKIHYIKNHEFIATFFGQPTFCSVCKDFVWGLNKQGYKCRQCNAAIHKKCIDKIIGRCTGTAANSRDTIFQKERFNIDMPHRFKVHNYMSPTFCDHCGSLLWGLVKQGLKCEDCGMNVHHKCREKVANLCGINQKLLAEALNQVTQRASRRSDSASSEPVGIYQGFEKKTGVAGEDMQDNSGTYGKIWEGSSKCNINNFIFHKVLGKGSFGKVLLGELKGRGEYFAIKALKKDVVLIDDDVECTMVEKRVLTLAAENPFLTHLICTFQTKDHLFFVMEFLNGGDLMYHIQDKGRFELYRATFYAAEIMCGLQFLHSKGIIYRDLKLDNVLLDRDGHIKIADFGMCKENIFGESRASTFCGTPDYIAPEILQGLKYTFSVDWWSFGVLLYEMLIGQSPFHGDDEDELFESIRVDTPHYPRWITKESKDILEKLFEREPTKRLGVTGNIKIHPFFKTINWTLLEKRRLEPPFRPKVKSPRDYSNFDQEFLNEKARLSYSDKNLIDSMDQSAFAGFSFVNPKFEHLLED
Protocol: In this study, we counter-screened the twenty-eight PKD1 inhibitory agents for inhibition of PKCα, PKCδ and CAMKIIα in order to get an initial profile for the potential PKD selectivity, since these are the functionally most closely related kinases. The compounds were examined at 0.1, 1 and 10 µM concentration. […] Next, the inhibitory activity for CAMKIIα was examined.
The PKC kinase assay was carried out by co-incubating 1 µCi [γ-^32P]ATP, 20 µM ATP, 50 ng of purified PKCα or PKCδ and 5 µg of myelin basic protein 4–14, 0.25 mg/mL bovine serum albumin, 0.1 mg/mL phosphatidylcholine/phosphatidylserine (80/20%) (1 µM), 1 µM phorbol dibutyrate in 50 µL of kinase buffer containing 50 mM Tris-HCl, pH 7.5, 4 mM MgCl2 and 10 mM β-mercaptoethanol. For the CAMK assay, 50 ng of CAMK and 2 µg Syntide-2 substrate in 50 µL kinase buffer were incubated with 0.1 mM MgCl2, 1 µCi of [γ-^32P] ATP, 70 µM ATP. 0.5 mM CaCl2 and 30 ng/µL calmodulin were preincubated for 15 min on ice and then added in the kinase reaction. The reactions were incubated at 30°C for 10 minutes and 25 µL of the reaction was spotted on Whatman P81 filter paper. The filter paper was washed 3 times in 0.5% phosphoric acid, air dried and counted using Beckman LS6500 multipurpose scintillation counter.

[6] = biological target: T2, endogenous PKD1 in LNCaP prostate cancer cells (Homo sapiens, UniProt Q15139); assay: PMA-induced activation of PKD1 in LNCaP cells (immunoblot pS916 / pS744/748); type: cell-based; details: PMA 10 nM
T2 construct: endogenous in cells; host or cells: LNCaP prostate cancer cells
T2 sequence (Q15139 1-912): T1 sequence (Q15139 1-912)
Protocol: (§1) PMA induces PKC-dependent phosphorylation of Ser744/748 (S^744/748) in the activation loop followed by autophosphorylation of PKD1 on Ser916 (S^916) in the C-terminus, [31]. The catalytic activity of PKD1 correlates well with the level of phosphorylation at S^916 [31].
(§2) Figure 5 In vitro IC50, cellular activity, and mode of action of representative compounds. […] IC50 values were calculated based on the dose-response curve. Data are represented as mean ± SEM of 3 independent experiments. […] Cell lysates were subjected to immunoblotting for pS^916-PKD1 and pS^744/748-PKD1. Tubulin was blotted as loading control. The experiments were repeated three times and representative blots are shown. C.

[7] = biological target: T3, PKD1 (Homo sapiens, UniProt Q15139); assay: Kinetic analysis, Lineweaver-Burk plots (ATP competition); type: biochemical
T3 construct: purchased Enzo Life sciences (Farmingdale, NY)
Protocol: as §1, §2

[8] = 1 µM, triplicate determinations

SMILES: O=C1NCCCc2c1oc1ccc(O)cc21 [CID755673]
- suppression of PKD1 autophosphorylation at Ser916 [1]: low micromolar range
- IC50 [2]: 182 nM
- inhibition of PKD1 in vitro [2]: low nanomolar range

SMILES: CCN1/C(=C/C(C)=O)Sc2ccc(OC)cc21 [CID1893668]
- inhibition of phorbol ester-induced endogenous PKD1 activation [1]: in a concentration-dependent manner
- IC50 [2]: 1700 nM

SMILES: O=C(Nc1ccc(CN2CCOCC2)cc1)c1ccc(-c2cccc(Cl)c2)o1 [CID2011756]
- inhibition of phorbol ester-induced endogenous PKD1 activation [1]: in a concentration-dependent manner
- IC50 [2]: 3200 nM

SMILES: Cc1cc(NCCCN)nc(-c2ccccc2O)n1 [CID5389142]
- inhibition of phorbol ester-induced endogenous PKD1 activation [1]: in a concentration-dependent manner
- IC50 [2]: 1500 nM

SMILES: O=C1Nc2ccc(F)cc2/C1=C/c1ccc[nH]1 [Compound 4]
- inhibition at 1 µM [3, 8]: 57%

SMILES: COc1cc[nH]c1/C=C1\C(=O)Nc2ccccc21 [Compound 5]
- inhibition at 1 µM [3, 8]: 55%

SMILES: CNCC#Cc1c(F)ccc2c1/C(=C/c1[nH]ccc1OC)C(=O)N2 [Compound 11]
- inhibition at 1 µM [3]: 94%

SMILES: COc1cc[nH]c1/C=C1\C(=O)Nc2ccc(F)c(C#CC3(O)CCOCC3)c21 [Compound 13]
- inhibition at 1 µM [3, 8]: 80%

SMILES: COc1cc[nH]c1/C=C1\C(=O)Nc2ccc(F)c(C#CC3(O)CCNCC3)c21 [Compound 15]
- inhibition at 1 µM [4]: ≥ 50%
- inhibition at 1 µM [3, 8]: 97%

SMILES: CN[C@H](C#Cc1c(F)ccc2c1/C(=C/c1[nH]ccc1OC)C(=O)N2)CO [Compound 16]
- inhibition at 1 µM [3, 8]: 95%

SMILES: COc1cc[nH]c1C=C1C(=O)Nc2ccc(F)c(C#CC(O)C(N)C(C)O)c21 (centres unmarked) [Compound 17]
- inhibition at 1 µM [3, 8]: 97%

SMILES: Cn1cc(C2=C(c3cccc4ccccc34)C(=O)NC2=O)c2ccccc21 [Compound 25]
- inhibition at 1 µM [3, 8]: 54%

SMILES: CSc1c(C2=C(c3cn(C)c4ccccc34)C(=O)NC2=O)c2ccccc2n1C [Compound 30]
- inhibition at 1 µM [3, 8]: 65%

SMILES: Cn1cc(C2=C(c3cn(CCCO)c4ccccc34)C(=O)NC2=O)c2ccccc21 [Compound 34]
- inhibition at 1 µM [3, 8]: 65%

SMILES: COc1ccc(O)c(C(=O)c2ccc(C(=O)O[C@@H]3CCCNC[C@H]3NC(=O)c3ccncc3)cc2)c1F [Compound 100]
- inhibition at 1 µM [3]: 77%

SMILES: O=C1Nc2ccc(F)c3c(OCCO)cc(-c4ccc[nH]4)c1c23 [Compound 101]
- inhibition at 1 µM [3]: 86%
- inhibition at 10 µM [5]: ~50%

SMILES: COc1cc[nH]c1/C=C1\C(=O)Nc2ccc([N+](=O)[O-])c(N3CC[C@@H](O)C3)c21 [Compound 102]
- inhibition at 1 µM [3, 8]: 93%

SMILES: COc1cccc(C(=O)c2sc(Nc3ccc(N4CCN(C(C)C)CC4)cc3)nc2N)c1 [Compound 104]
- inhibition at 1 µM [3]: 65%
- inhibition at 10 µM [5]: ~50%

SMILES: Fc1ccc(-c2c(-c3ccncc3)[nH]c3cccnc23)cc1 [Compound 116]
- inhibition at 1 µM [3]: 86%
- inhibition at 10 µM [5]: ~70%

SMILES: Cn1c(-c2ccncc2)c(-c2ccc(F)cc2)c2ncccc21 [Compound 121]
- inhibition at 1 µM [3]: 55%

SMILES: OCCn1c(-c2ccncc2)c(-c2ccc(F)cc2)c2ncccc21 [Compound 123]
- inhibition at 1 µM [3, 8]: 58%

SMILES: Cc1cc(C)c2c(n1)sc1c(N)ncnc12 [Compound 172]
- inhibition at 1 µM [3, 8]: 62%
- inhibition at 10 µM ([5]; 10 µM): ~50%

SMILES: COc1ccc(O)c(C(=O)c2ccc(C(=O)N[C@@H]3CCCNC[C@H]3NC(=O)c3ccncc3)cc2)c1F [Compound 175]
- inhibition at 1 µM [3]: 78%

SMILES: O=C1N=C(NCc2ccccc2)S/C1=C\c1ccc2ncccc2c1 [Compound 178]
- inhibition at 1 µM [3, 8]: 55%
- inhibition at 10 µM ([5]; 10 µM): ~50%

SMILES: O=C1N=C(N[C@H](CO)Cc2ccccc2)S/C1=C\c1ccc2ncccc2c1 [Compound 190]
- inhibition at 1 µM [3, 8]: 49%
- inhibition at 10 µM ([5]; 10 µM): ~70%

SMILES: O=C1N=C(N[C@@H](CO)Cc2ccccc2)S/C1=C\c1ccc2ncccc2c1 [Compound 198]
- inhibition at 1 µM [4]: ≥ 50%
- inhibition at 1 µM [3, 8]: 62%
- inhibition at 10 µM ([5]; 10 µM): ~70%

SMILES: O=C1N=C(N[C@H](CO)c2ccccc2)S/C1=C\c1ccc2ncccc2c1 [Compound 203]
- inhibition at 1 µM [3, 8]: 85%

SMILES: NC1=NC(=O)/C(=C/c2ccc3ncccc3c2)S1 [Compound 205]
- inhibition at 1 µM [3, 8]: 82%

SMILES: CNC1=NC(=O)/C(=C/c2ccc3ncccc3c2)S1 [Compound 209]
- effect on PKC-induced transphosphorylation at S744/748 [6]: did not affect
- IC50 ([6]; densitometry of pS916-PKD1 levels, read-out: cellular IC50 for inhibition of PKD1): 18200 nM
- mode of inhibition with respect to ATP [7]: competitive with respect to ATP
- inhibition at 1 µM [3, 8]: 64%
- IC50 ([3]; dose-response, mean ± SEM of 3 independent experiments): 562 nM

SMILES: O=C1NCCSc2c1sc1ccc(O)cc21 [kb-NB142-70]
- suppression of PKD1 autophosphorylation at Ser916 [1]: low micromolar range
- IC50 [2]: 28.3 nM
- inhibition of PKD1 in vitro [2]: low nanomolar range
